# Assay results reported in US20250312352A1, “GLP-1R MODULATING COMPOUNDS” (Gilead Sciences, Inc., priority 2021, published 2025).
# Target: T1, GLP-1R (Homo sapiens, UniProt P43220)
# T1 construct: host or cells: CHO cells
# Assay: GLP-1R activation cAMP assay (Assay 1 or Assay 2)
# Assay type: cell-based
# Conditions: cAMP increase in CHO cells stably expressing GLP-1R; compounds run on one of the two cAMP assays
# How it was run: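 CHO cells stably expressing human GLP-1R were incubated 1 h in HBSS/20 mM HEPES/0.1% BSA, then exposed to 10-point agonist dilutions for 30 min at 37 °C. cAMP increase was measured with an HTRF Gs dynamic kit; EC50 from sigmoidal fit of response versus log concentration.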
# T1 sequence (P43220 24-463): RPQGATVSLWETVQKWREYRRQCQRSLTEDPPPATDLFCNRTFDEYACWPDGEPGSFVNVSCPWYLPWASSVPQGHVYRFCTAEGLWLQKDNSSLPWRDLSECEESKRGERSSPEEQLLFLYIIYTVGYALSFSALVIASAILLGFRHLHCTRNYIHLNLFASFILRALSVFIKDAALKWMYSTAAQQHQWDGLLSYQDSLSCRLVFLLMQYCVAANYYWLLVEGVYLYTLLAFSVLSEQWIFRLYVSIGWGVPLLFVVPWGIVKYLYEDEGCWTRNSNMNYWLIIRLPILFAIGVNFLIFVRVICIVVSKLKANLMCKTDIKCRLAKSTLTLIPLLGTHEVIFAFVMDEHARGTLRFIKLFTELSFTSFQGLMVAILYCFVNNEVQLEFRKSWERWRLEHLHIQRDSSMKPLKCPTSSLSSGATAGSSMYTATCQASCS
row,EC50 [nM],Structure (SMILES)
1,0.355,"Cn1cc(-c2ncc(COc3cccc(-c4cc(F)c(Cc5nc6ccc(C(=O)O)cc6n5C[C@@H]5CCO5)cc4F)n3)s2)cn1 [Example 355, (S)-2-(2,5-difluoro-4-(6-((2-(1-methyl-1H-pyrazol-4-yl)thiazol-5-yl)methoxy)pyridin-2-yl)benzyl)-1-(oxetan-2-ylmethyl)-1H-benzo[d]imidazole-6-carboxylic acid]"
2,0.262,"Cc1cc(C#Cc2cnn(C)c2)cnc1COc1cccc(-c2cc(F)c(Cc3nc4ccc(C(=O)O)cc4n3C[C@@H]3CCO3)cc2F)n1 [Example 289, (S)-2-(2,5-difluoro-4-(6-((3-methyl-5-((1-methyl-1H-pyrazol-4-yl)ethynyl)pyridin-2-yl)methoxy)pyridin-2-yl)benzyl)-1-(oxetan-2-ylmethyl)-1H-benzo[d]imidazole-6-carboxylic acid]"
3,0.669,"COc1nnc(COc2cccc(-c3cc(Cl)c(Cc4nc5ccc(C(=O)O)cc5n4[C@@H]4COCC4(C)C)cc3C)n2)s1 [Example 442, (S)-2-(2-chloro-4-(6-((5-methoxy-1,3,4-thiadiazol-2-yl)methoxy)pyridin-2-yl)-5-methylbenzyl)-1-(4,4-dimethyltetrahydrofuran-3-yl)-1H-benzo[d]imidazole-6-carboxylic acid]"
4,0.209,"O=C(O)c1ccc2nc(Cc3cc(F)c(-c4cccc(OCc5nnc(OCC(F)(F)F)s5)n4)cc3F)n(C[C@@H]3CCO3)c2c1 [Example 350, (S)-2-(2,5-difluoro-4-(6-((5-(2,2,2-trifluoroethoxy)-1,3,4-thiadiazol-2-yl)methoxy)pyridin-2-yl)benzyl)-1-(oxetan-2-ylmethyl)-1H-benzo[d]imidazole-6-carboxylic acid]"
5,0.475,"COc1nnc(COc2nc(-c3cc(Cl)c(Cc4nc5ccc(C(=O)O)cc5n4[C@@H]4COCC4(C)C)cc3C)ccc2F)s1 [Example 441, (S)-2-(2-chloro-4-(5-fluoro-6-((5-methoxy-1,3,4-thiadiazol-2-yl)methoxy)pyridin-2-yl)-5-methylbenzyl)-1-(4,4-dimethyltetrahydrofuran-3-yl)-1H-benzo[d]imidazole-6-carboxylic acid]"
6,0.028,"CC(F)(F)c1cnc(COc2cccc(-c3cc(F)c(Cc4nc5c(F)cc(C(=O)O)cc5n4C[C@@H]4CCO4)cc3F)n2)s1 [Example 318, (S)-2-(4-(6-((5-(1,1-difluoroethyl)thiazol-2-yl)methoxy)pyridin-2-yl)-2,5-difluorobenzyl)-4-fluoro-1-(oxetan-2-ylmethyl)-1H-benzo[d]imidazole-6-carboxylic acid]"
7,0.17,"O=C(O)c1ccc2nc(Cc3c(F)cc(-c4ccc(F)c(OCc5ncc(C(F)(F)F)s5)n4)c(F)c3F)n(C[C@@H]3CCO3)c2c1 [Example 446, (S)-1-(oxetan-2-ylmethyl)-2-(2,3,6-trifluoro-4-(5-fluoro-6-((5-(trifluoromethyl)thiazol-2-yl)methoxy)pyridin-2-yl)benzyl)-1H-benzo[d]imidazole-6-carboxylic acid]"
8,0.349,"O=C(O)c1ccc2nc(Cc3cc(F)c(-c4cccc(OCc5ncc(C#CC6CCOC6)s5)n4)cc3F)n(C[C@@H]3CCO3)c2c1 (stereo partly drawn) [Example 322, 2-(2,5-difluoro-4-(6-((5-((tetrahydrofuran-3-yl)ethynyl)thiazol-2-yl)methoxy)pyridin-2-yl)benzyl)-1-(((S)-oxetan-2-yl)methyl)-1H-benzo[d]imidazole-6-carboxylic acid]"
9,0.823,"Cn1cc(C#Cc2cc(Cl)c(COc3cccc(-c4cc(F)c(Cc5nc6ccc(C(=O)O)cc6n5C[C@@H]5CCO5)cc4F)n3)cn2)cn1 [Example 300, (S)-2-(4-(6-((4-chloro-6-((1-methyl-1H-pyrazol-4-yl)ethynyl)pyridin-3-yl)methoxy)pyridin-2-yl)-2,5-difluorobenzyl)-1-(oxetan-2-ylmethyl)-1H-benzo[d]imidazole-6-carboxylic acid]"
10,0.508,"Cc1nnc(COc2nc(-c3cc(F)c(Cc4nc5c(F)cc(C(=O)O)cc5n4C[C@@H]4CCO4)cc3F)ccc2F)s1 [Example 297, (S)-2-(2,5-difluoro-4-(5-fluoro-6-((5-methyl-1,3,4-thiadiazol-2-yl)methoxy)pyridin-2-yl)benzyl)-4-fluoro-1-(oxetan-2-ylmethyl)-1H-benzo[d]imidazole-6-carboxylic acid]"
11,0.764,"COCCn1c(Cc2cc(F)c(-c3cccc(OCc4nnc(OC)s4)n3)cc2Cl)nc2c(F)cc(C(=O)O)cc21 [Example 315, 2-(2-chloro-5-fluoro-4-(6-((5-methoxy-1,3,4-thiadiazol-2-yl)methoxy)pyridin-2-yl)benzyl)-4-fluoro-1-(2-methoxyethyl)-1H-benzo[d]imidazole-6-carboxylic acid]"

# Further lines, the compound ahead of its results:
row,Structure (SMILES),EC50 [nM]
1,"N#CC1(NC(=O)c2ccc(COc3cccc(-c4cc(F)c(Cc5nc6ccc(C(=O)O)cc6n5C[C@@H]5CCO5)cc4F)n3)cn2)CC1 [Example 183, (S)-2-(4-(6-((6-((1-cyanocyclopropyl)carbamoyl)pyridin-3-yl)methoxy)pyridin-2-yl)-2,5-difluorobenzyl)-1-(oxetan-2-ylmethyl)-1H-benzo[d]imidazole-6-carboxylic acid]",0.26
2,"COc1nnc(COc2cccc(-c3cc(F)c(Cc4nc5ccc(C(=O)O)cc5n4CC4(C(F)F)CC4)cc3F)n2)s1 [Example 276, 2-(2,5-difluoro-4-(6-((5-methoxy-1,3,4-thiadiazol-2-yl)methoxy)pyridin-2-yl)benzyl)-1-((1-(difluoromethyl)cyclopropyl)methyl)-1H-benzo[d]imidazole-6-carboxylic acid]",1.31
3,"O=C(O)c1ccc2nc(Cc3cc(F)c(-c4cccc(OCc5ccn(-c6ccncc6)n5)n4)cc3F)n(C[C@@H]3CCO3)c2c1 [Example 125, (S)-2-(2,5-difluoro-4-(6-((1-(pyridin-4-yl)-1H-pyrazol-3-yl)methoxy)pyridin-2-yl)benzyl)-1-(oxetan-2-ylmethyl)-1H-benzo[d]imidazole-6-carboxylic acid]",3.64
4,"O=C(O)c1ccc2nc(Cc3cc(F)c(-c4cccc(OCc5cnc(-c6cn(C7COC7)nn6)cc5F)n4)cc3F)n(C[C@@H]3CCO3)c2c1 [Example 236, 2-[[2,5-difluoro-4-[6-[[4-fluoro-6-[1-(oxetan-3-yl)triazol-4-yl]-3-pyridyl]methoxy]-2-pyridyl]phenyl]methyl]-3-[[(2S)-oxetan-2-yl]methyl]benzimidazole-5-carboxylic acid]",0.22
5,"O=C(O)c1ccc2nc(Cc3cc(F)c(-c4cccc(OCc5cc6n(n5)CC5(CC5)C6)n4)cc3F)n(C[C@@H]3CCO3)c2c1 [Example 75, (S)-2-(4-(6-((4′,6′-dihydrospiro[cyclopropane-1,5′-pyrrolo[1,2-b]pyrazol]-2′-yl)methoxy)pyridin-2-yl)-2,5-difluorobenzyl)-1-(oxetan-2-ylmethyl)-1H-benzo[d]imidazole-6-carboxylic acid]",0.61
6,"N#Cc1sc(COc2cccc(-c3cc(F)c(Cc4nc5ccc(C(=O)O)cc5n4C[C@@H]4CCO4)cc3F)n2)cc1F [Example 205, 2-[[4-[6-[(5-cyano-4-fluoro-2-thienyl)methoxy]-2-pyridyl]-2,5-difluoro-phenyl]methyl]-3-[[(2S)-oxetan-2-yl]methyl]benzimidazole-5-carboxylic acid]",0.25
7,"COc1cc(C(=O)NC2(C#N)CC2)ncc1COc1cccc(-c2cc(F)c(Cc3nc4ccc(C(=O)O)cc4n3C[C@@H]3CCO3)cc2F)n1 [Example 41, (S)-2-(4-(6-((6-((1-cyanocyclopropyl)carbamoyl)-4-methoxypyridin-3-yl)methoxy)pyridin-2-yl)-2,5-difluorobenzyl)-1-(oxetan-2-ylmethyl)-1H-benzo[d]imidazole-6-carboxylic acid]",0.17
8,"O=C(O)c1ccc2nc(Cc3cc(F)c(-c4cccc(OCc5ncc(-c6cccnc6)s5)n4)cc3F)n(C[C@@H]3CCO3)c2c1 [Example 108, (S)-2-(2,5-difluoro-4-(6-((5-(pyridin-3-yl)thiazol-2-yl)methoxy)pyridin-2-yl)benzyl)-1-(oxetan-2-ylmethyl)-1H-benzo[d]imidazole-6-carboxylic acid]",0.18
9,"O=C(O)c1ccc2nc(Cc3cc(F)c(-c4cccc(OCc5ccc(C(F)(F)F)o5)n4)cc3F)n(C[C@@H]3CCO3)c2c1 [Example 61, (S)-2-(2,5-difluoro-4-(6-((5-(trifluoromethyl)furan-2-yl)methoxy)pyridin-2-yl)benzyl)-1-(oxetan-2-ylmethyl)-1H-benzo[d]imidazole-6-carboxylic acid]",0.96
10,"O=C(O)c1ccc2nc(Cc3cc(F)c(-c4cccc(OCc5ccc(-c6cn(C78CC(C7)C8)nn6)cc5F)n4)cc3F)n(C[C@@H]3CCO3)c2c1 [Example 216, (S)-2-(4-(6-((4-(1-(bicyclo[1.1.1]pentan-1-yl)-1H-1,2,3-triazol-4-yl)-2-fluorobenzyl)oxy)pyridin-2-yl)-2,5-difluorobenzyl)-1-(oxetan-2-ylmethyl)-1H-benzo[d]imidazole-6-carboxylic acid]",0.72
11,"O=C(O)c1ccc2nc(Cc3cc(F)c(-c4cccc(OCc5nnc(C6CC6)o5)n4)cc3F)n(C[C@@H]3CCO3)c2c1 [Example 67, (S)-2-(4-(6-((5-cyclopropyl-1,3,4-oxadiazol-2-yl)methoxy)pyridin-2-yl)-2,5-difluorobenzyl)-1-(oxetan-2-ylmethyl)-1H-benzo[d]imidazole-6-carboxylic acid]",6.52
12,"Cc1ncc(C#Cc2ccc(COc3cccc(-c4cc(F)c(Cc5nc6ccc(C(=O)O)cc6n5C[C@@H]5CCO5)cc4F)n3)c(F)c2)cn1 [Example 146, (S)-2-(2,5-difluoro-4-(6-((2-fluoro-4-((2-methylpyrimidin-5-yl)ethynyl)benzyl)oxy)pyridin-2-yl)benzyl)-1-(oxetan-2-ylmethyl)-1H-benzo[d]imidazole-6-carboxylic acid]",0.09
